Experimental data: ChEMBL document CHEMBL1201862, “PubChem BioAssay data set” (2004)
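These data come from cells grown in 96-well plates and exposed to compound for 48 hours at five concentrations. The concentration for 50% growth inhibition is given as GI50.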 Calls of active or inactive are those of the source. Cut-off read from the data, not from the text of the source: active = GI50 up to about 1.1 µM and inactive = higher.

Columns and labels:
Assay in all cases: NCI tumour cell line growth inhibition, 48 h
SNB-75 = system: SNB-75
DU-145 = system: DU-145
M14 = system: M14
UO-31 = system: UO-31
HOP-62 = system: HOP-62
SF-295 = system: SF-295
SK-MEL-28 = system: SK-MEL-28
Malme-3M = system: Malme-3M
MOLT-4 = system: MOLT-4
A498 = system: A498
HCT-116 = system: HCT-116
SF-268 = system: SF-268
786-0 = system: 786-0
UACC-62 = system: UACC-62
SW-620 = system: SW-620
NCI-H23 = system: NCI-H23
OVCAR-4 = system: OVCAR-4
OVCAR-3 = system: OVCAR-3
HCT-15 = system: HCT-15
RPMI-8226 = system: RPMI-8226
SK-MEL-2 = system: SK-MEL-2
SK-MEL-5 = system: SK-MEL-5
CAKI-1 = system: CAKI-1
NCI/ADR-RES = system: NCI/ADR-RES
MDA-MB-231 = system: MDA-MB-231
Hs-578T = system: Hs-578T
CCRF-CEM = system: CCRF-CEM
OVCAR-5 = system: OVCAR-5
K562 = system: K562
U-251 = system: U-251
NCI-H522 = system: NCI-H522
MDA-MB-435 = system: MDA-MB-435
ACHN = system: ACHN
SN12C = system: SN12C
HOP-92 = system: HOP-92
HT-29 = system: HT-29
SK-OV-3 = system: SK-OV-3
KM12 = system: KM12
BT-549 = system: BT-549
PC-3 = system: PC-3
SNB-19 = system: SNB-19
RXF 393 = system: RXF 393
MDA-N = system: MDA-N
A549 = system: A549
T47D = system: T47D
TK-10 = system: TK-10
UACC-257 = system: UACC-257
OVCAR-8 = system: OVCAR-8
LOX IMVI = system: LOX IMVI
EKVX = system: EKVX
COLO 205 = system: COLO 205
IGROV-1 = system: IGROV-1

What does the source list for `O=[N+]([O-])c1ccc(/N=N/c2c(O)ccc3cc(S(=O)(=O)O)ccc23)cc1`?
GI50 (SNB-75): > 100 µM (inactive); GI50 (DU-145): > 100 µM (inactive); GI50 (M14): > 100 µM (inactive); GI50 (UO-31): > 100 µM (inactive); GI50 (HOP-62): > 100 µM (inactive); GI50 (SF-295): > 100 µM (inactive); GI50 (SK-MEL-28): > 100 µM (inactive); GI50 (Malme-3M): > 100 µM (inactive); GI50 (MOLT-4): > 100 µM (inactive); GI50 (A498): > 100 µM (inactive); GI50 (HCT-116): > 100 µM (inactive); GI50 (SF-268): > 100 µM (inactive); GI50 (786-0): > 100 µM (inactive); GI50 (UACC-62): > 100 µM (inactive); GI50 (SW-620): > 100 µM (inactive); GI50 (NCI-H23): > 100 µM (inactive); GI50 (OVCAR-4): > 100 µM (inactive); GI50 (OVCAR-3): > 100 µM (inactive); GI50 (HCT-15): > 100 µM; GI50 (RPMI-8226): > 100 µM (inactive); GI50 (SK-MEL-2): > 100 µM (inactive); GI50 (SK-MEL-5): > 100 µM (inactive); GI50 (CAKI-1): > 100 µM (inactive); GI50 (NCI/ADR-RES): > 100 µM (inactive); GI50 (MDA-MB-231): > 100 µM (inactive); GI50 (Hs-578T): > 100 µM (inactive); GI50 (CCRF-CEM): > 100 µM (inactive); GI50 (OVCAR-5): > 100 µM (inactive); GI50 (K562): > 100 µM (inactive); GI50 (U-251): > 100 µM (inactive); GI50 (NCI-H522): > 100 µM (inactive); GI50 (MDA-MB-435): > 100 µM (inactive); GI50 (ACHN): > 100 µM (inactive); GI50 (SN12C): > 100 µM (inactive); GI50 (HOP-92): > 100 µM (inactive); GI50 (HT-29): > 100 µM (inactive); GI50 (SK-OV-3): > 100 µM (inactive); GI50 (KM12): > 100 µM (inactive); GI50 (BT-549): > 100 µM (inactive); GI50 (PC-3): > 100 µM (inactive); GI50 (SNB-19): > 100 µM (inactive); GI50 (RXF 393): > 100 µM (inactive); GI50 (MDA-N): > 100 µM (inactive); GI50 (A549): > 100 µM (inactive); GI50 (T47D): > 100 µM (inactive); GI50 (TK-10): > 100 µM (inactive); GI50 (UACC-257): > 100 µM (inactive); GI50 (OVCAR-8): > 100 µM (inactive); GI50 (LOX IMVI): > 100 µM (inactive); GI50 (EKVX): > 100 µM (inactive); GI50 (COLO 205): > 100 µM (inactive); GI50 (IGROV-1): > 100 µM (inactive)
